Experimental data: patent publication US10500209B2, “Quinazolinones as bromodomain inhibitors” (Zenith Epigenetics Ltd., priority 2013, dated 2019)

How the values were obtained:
[1] = target: T1, Brd4 bromodomain 1 (BRD4(1)) (Homo sapiens, UniProt O60885); test: Inhibition of tetra-acetylated histone H4 binding to BET bromodomains (TR-FRET); design: key: Active: Compounds with an IC50 value less than 30 μM were deemed to be active.; Not Active: Compounds with an IC50 value less than 30 μM were deemed to be active; conditions: first bromodomain of Brd4, tetra-acetylated histone H4 peptide
T1 construct: made in house; host or cells: E. coli BL21(DE3)
Description: Proteins were cloned and overexpressed with a N-terminal 6×His tag, then purified by nickel affinity followed by size exclusion chromatography. Briefly, E. coli BL21(DE3) cells were transformed with a recombinant expression vector encoding N-terminally Nickel affinity tagged bromodomains from Brd2, Brd3, Brd4. Cell cultures were incubated at 37° C. with shaking to the appropriate density and induced overnight with IPTG. The supernatant of lysed cells was loaded onto Ni-IDA column for purification. Eluted protein is pooled, concentrated and further purified by size exclusion chromatography. Fractions representing monomeric protein were pooled, concentrated, aliquoted, and frozen at −80° C. for use in subsequent experiments.
Binding of tetra-acetylated histone H4 and BET bromodomains was confirmed by a Time Resolved Fluorescence Resonance Energy Transfer (TR-FRET) method. N-terminally His-tagged bromodomains (200 nM) and biotinylated tetra-acetylated histone H4 peptide (25-50 nM, Millipore) were incubated in the presence of Europium Cryptate-labeled streptavidin (Cisbio Cat. #610SAKLB) and XL665-labeled monoclonal anti-His antibody (Cisbio Cat. #61HISXLB) in a white 96 well microtiter plate (Greiner). For inhibition assays, serially diluted test compound was added to these reactions in a 0.2% final concentration of DMSO. Final buffer concentrations were 30 mM HEPES pH 7.4, 30 mM NaCl, 0.3 mM CHAPS, 20 mM phosphate pH 7.0, 320 mM KF, 0.08% BSA). After a 2-h incubation at room temperature, the fluorescence by FRET was measured at 665 and 620 nm by a SynergyH4 plate reader (Biotek). The binding inhibitory activity was shown by a decrease in 665 nm fluorescence relative to 620 nm. IC50 values were determined from a dose response curve.

[2] = test system: human AML MV-4-11 cells; test: Inhibition of cell proliferation in cancer cell lines (CellTiter Aqueous One); format: cell-based; design: key: Active: Compounds with an IC50 value less than 30 μM were deemed to be active.; Not Active: Compounds with an IC50 value less than 30 μM were deemed to be active; conditions: 72 h
Description: MV4-11 cells: 96-well plates were seeded with 5×10^4 cells per well of exponentially growing human AML MV-4-11 (CRL-9591) cells and immediately treated with two-fold dilutions of test compounds, ranging from 30 μM to 0.2 μM. Triplicate wells were used for each concentration, as well as a media only and three DMSO control wells. The cells and compounds were incubated at 37° C., 5% CO2 for 72 h before adding 20 μL of the CellTiter Aqueous One Solution (Promega) to each well and incubating at 37° C., 5% CO2 for an additional 3-4 h. The absorbance was taken at 490 nm in a spectrophotometer and the percentage of proliferation relative to DMSO-treated cells was calculated after correction from the blank well. IC50 were calculated using the GraphPad Prism software.

[3] = test system: c-myc in MV4-11 cells; test: Inhibition of c-myc expression in cancer cell lines (mRNA, real-time PCR); format: cell-based, Human; design: key: Active: Compounds with an IC50 value less than 30 μM were deemed to be active.; Not Active: Compounds with an IC50 value less than 30 μM were deemed to be active; conditions: 3 h
Description: MV4-11 cells (2.5×10^4 cells) were plated in 96 well U-bottom plates with test compound or DMSO (0.1%), and incubated for 3 h at 37° C. Cells were then harvested by centrifugation, lysed, and mRNA was isolated using the mRNA catcher plus kit (Invitrogen). Reverse transcription of the mRNA and duplex amplification of the c-myc and cyclophilin cDNAs was performed using the RNA Ultrasense kit (Invitrogen) and a ViiA7 real-time PCR machine (Applied Biosystems). IC50 values were determined from a dose response curve.

Compound	FRET activity BRD4(1) [1]	Cell Proliferation activity (IC50 < 30 μM) [2]	melting point [°C]	c-myc activity (IC50 < 30 μM) [3]
COc1ccc(-c2nc3cc(OC)cc(OC)c3c(=O)[nH]2)c([S+]([O-])C2CCN(C)CC2)c1 (centres unmarked) [Example 23, 5,7-Dimethoxy-2-[4-methoxy-2-(1-methylpiperidin-4-ylsulfinyl)phenyl]quinazolin-4(3H)-one]	Active	Not Active	263 to 265	–
COc1ccc(-c2nc3cc(OC)cc(OC)c3c(=O)[nH]2)c(NCC2CCCN2C(C)C)c1 (centres unmarked) [Example 17, 2-(2-(((1-Isopropylpyrrolidin-2-yl)methyl)amino)-4-methoxyphenyl)-5,7-dimethoxyquinazolin-4(3H)-one]	Active	–	207 to 209	Active
COc1cnc(-c2nc3cc(OC)cc(OC)c3c(=O)[nH]2)c(NC2CCN(C(C)C)CC2)c1 [Example 30, 2-(3-((1-Isopropylpiperidin-4-yl)amino)-5-methoxypyridin-2-yl)-5,7-dimethoxyquinazolin-4(3H)-one]	Active	Active	207 to 208	–
COc1ccc(-c2nc3cc(OC)cc(OC)c3c(=O)[nH]2)c(NC2CCOCC2)c1 [Example 9, 5,7-dimethoxy-2-(4-Methoxy-2-((tetrahydro-2H-pyran-4-yl)amino)-phenyl)quinazolin-4(3H)-one]	Active	Not Active	286 to 287	–
COc1ccc(-c2nc3cc(OC)cc(OC)c3c(=O)[nH]2)c(NCCCN2CCCC2)c1 [Example 15, 5,7-Dimethoxy-2-(4-methoxy-2-((3-(pyrrolidin-1-yl)propyl)amino)phenyl)quinazolin-4(3H)-one]	Active	Active	–	Active
COc1ccc(-c2nc3cc(OC)cc(OC)c3c(=O)[nH]2)c(NCCN2CCOCC2)c1 [Example 14, 5,7-Dimethoxy-2-(4-methoxy-2-((2-morpholinoethyl)amino)phenyl)-quinazolin-4(3H)-one]	Active	Not Active	239 to 240	–
COc1ccc(-c2nc3cc(OC)cc(OC)c3c(=O)[nH]2)c(NCC2CCN(C(C)C)C2)c1 (centres unmarked) [Example 16, 2-(2-(((1-Isopropylpyrrolidin-3-yl)methyl)amino)-4-methoxyphenyl)-5,7-dimethoxyquinazolin-4(3H)-one]	Active	Active	228 to 230	Active
COc1ccc(-c2nc3cc(OC)cc(OC)c3c(=O)[nH]2)c(NCCCN2CCN(C)CC2)c1 [Example 21]	Active	Active	220 to 222	Active

Second part, the molecule after the results:

FRET activity BRD4(1) [1]	Cell Proliferation activity (IC50 < 30 μM) [2]	melting point [°C]	c-myc activity (IC50 < 30 μM) [3]	Compound
Active	Active	231 to 233	Active	COc1cc(OC)c2c(=O)[nH]c(-c3ncc(OCCO)cc3NC3CCN(C(C)C)CC3)nc2c1 [Example 62, 2-[5-(2-Hydroxyethoxy)-3-(l-isopropylpiperidin-4-ylamino)pyridin-2-yl]-5,7-dimethoxyquinazolin-4(3H)-one]
Active	Active	195 to 197	Active	COc1cc(OC)c2c(=O)[nH]c(-c3ncccc3NC3CCN(C(=O)N(C)C)CC3)nc2c1 [Example 42, 4-((2-(5,7-Dimethoxy-4-oxo-3,4-dihydroquinazolin-2-yl)pyridin-3-yl)amino)-N,N-dimethylpiperidine-1-carboxamide]
Active	Active	220 to 221	Active	COc1cc(OC)c2c(=O)[nH]c(-c3ncccc3NC3CCN(CC(C)(C)O)CC3)nc2c1 [Example 59, 2-(3-((1-(2-Hydroxy-2-methylpropyl)piperidin-4-yl)amino)pyridin-2-yl)-5,7-dimethoxyquinazolin-4(3H)-one]
Active	Active	178 to 181	Active	COc1cc(OC)c2c(=O)[nH]c(-c3ncc(OCCNC(C)C)cc3NC3CCN(C(C)C)CC3)nc2c1 [Example 67, 2-{5-[2-(Isopropylamino)ethoxy]-3-(1-isopropylpiperidin-4-ylamino)pyridin-2-yl}-5,7-dimethoxyquinazolin-4(3H)-one]
Active	Active	220 to 222	Active	COc1ccc(CNc2cc(OC)c3c(=O)[nH]c(-c4ncccc4NC4CCN(C(C)C)CC4)nc3c2)cc1 [Example 61, 2-(3-((1-Isopropylpiperidin-4-yl)amino)pyridin-2-yl)-5-methoxy-7-((4-methoxybenzyl)amino)quinazolin-4(3H)-one]
Active	Not Active	256 to 257	–	COc1cc(OC)c2c(=O)[nH]c(-c3ncccc3N[C@H]3CC[C@@H](C(=O)NC(C)C)CC3)nc2c1 [Example 63, cis-4-((2-(5,7-Dimethoxy-4-oxo-3,4-dihydroquinazolin-2-yl)pyridin-3-yl)amino)-N-isopropylcyclohexane-1-carboxamide]
Active	Active	166 to 169	Active	COc1cc(OC)c2c(=O)[nH]c(-c3ncc(OCCN4CCCC4)cc3NC3CCN(C(C)C)CC3)nc2c1 [Example 66, 2-{3-(1-Isopropylpiperidin-4-ylamino)-5-[2-(pyrrolidin-1-yl)ethoxy]pyridin-2-yl}-5,7-dimethoxyquinazolin-4(3H)-one]
